This passage reports control value and pest or weed control results from patent US8461181B2, “Fused heterocyclic compound and use thereof” (Sumitomo Chemical Company, Ltd., priority 2009, dated 2013).

One may read the pest or weed control as the degree to which the test organism was suppressed or injured, in per cent.

A value given as a limit tells only on which side of the number the result lay.

What all share (format): in vivo
The test system of assay [1] is Aphis gossypii. Briefly: Test Example 1: spray on cucumber seedling inoculated with Aphis gossypii. Particulars: 500 ppm, 10 ml sprayed on cucumber seedling inoculated with about 30 Aphis gossypii; five days after spraying. The procedure: The formulations of the present active compounds (1) to (15), (17) to (25), (27) to (56), (101) to (103), (105) to (108), (117), (118), (121) to (130), (133) to (144), (147), (148), (152) to (156), (202), (204) to (206), (208), (209), (211) to (213), and (216) to (221) obtained by Formulation Example 5 were diluted with water so that the active ingredient concentration was 500 ppm, to prepare spray solutions for test. Separately, a cucumber seedling (second true leaf spreading stage) planted on a plastic cup was inoculated with about 30 Aphis gossypii, and left for 1 day. The above-described diluted solutions were sprayed each in an amount of 10 ml on this seedling. Five days after spraying, the number of insect of living Aphis gossypii […] on the leaves of this cucumber was checked, and the control value was calculated according to the following formula. Control value (%)={1-(Cb×Tai)/(Cai×Tb)}×100 Letters in the formula represent the following meanings. Cb: the number of insect before treatment on non-treated district Cai: the number of insect in observation on non-treated district Tb: the number of insect before treatment on treated district Tai: the number of insect in observation on treated district

The subject of assay [2] is Aphis gossypii. The assay is described as follows: Test Example 3: root immersion of cucumber seedling, Aphis gossypii. Particulars: 168 h, cucumber root part immersed in 5 ml, inoculated one day after treatment, checked seven days after. The method in brief:
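Roots of washed cucumber seedlings (first true leaf stage) immersed in 500 ppm water-diluted formulation; 30 A. gossypii (whole stage) placed on leaves one day later. Living aphids counted seven days after, control value (%) = {1-(Cb×Tai)/(Cai×Tb)}×100 vs non-treated.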

A further assay relates to Bemisia tabaci. Briefly: Test Example 5: spray on tomato seedling with Bemisia tabaci larvae. The settings on record: 168 h, 10 ml/cup sprayed on tomato seedling with hatching Bemisia tabaci larvae, 7 days at 25° C. The procedure:
The formulations of the present active compounds (1) to (5), (7) to (15), (17) to (21), (25), (28) to (45), (48) to (56), (101) to (103), (106), (107), (117), (118), (121) to (145), (147) to (151), (153) to (155), (204), (206), (208), (209), (211) to (213) and (216) to (221) obtained by Formulation Example 5 were diluted with water so that the active ingredient concentration was 500 ppm, to prepare spray solutions for test. Separately, on a tomato seedling planted on a plastic cup, Bemisia tabaci adult insects were released and allowed to lay eggs for about 24 hours. The tomato seedling was kept in a greenhouse […], and the above-described spray solutions for test were sprayed at a proportion of 10 ml/cup on the condition of hatching of larvae from the laid eggs, and kept in a greenhouse of 25° C. for 7 days. The number of living larvae on the tomato leaves was checked, and the control value was calculated according to the following formula. Control value (%)={1−(Cb×Tai)/(Cai×Tb)}×100 Letters in the formula represent the following meanings. Cb: the number of insect before treatment on non-treated district Cai: the number of insect in observation on non-treated district Tb: the number of insect before treatment on treated district Tai: the number of insect in observation on treated district

Assay [3] has as its system Nilaparvata lugens. Briefly: Test Example 8: spray on rice seedling, 20 first instar larvae of Nilaparvata lugens. Particulars: 144 h, 10 ml sprayed on rice seedling, 20 first instar larvae released, 6 days at 25° C. The procedure:
The formulations of the present active compounds (6), (7), (18), (21), (24), (25), (28) to (30), (32), (46), (52), (101) to (103), (105) to (107), (111), (112), (115), (119) to (124), (126) to (130), (133) to (135), (139), (142), (144) to (146), (149) to (151), (153), (154), (216) and (217) obtained by Formulation Example 5 were diluted with water so that the active ingredient concentration was 500 ppm, to prepare spray solutions for test. Separately, on a rice seedling (2 weeks after sowing, second leaf spreading stage) planted on a plastic cup, the drug solutions for test prepared as described above were sprayed each in an amount of 10 ml. After drying of the drug solution sprayed on rice, 20 first instar larvae of Nilaparvata lugens were released, and kept in a greenhouse of 25° C. for 6 days. Thereafter, the number of Nilaparvata lugens […] on rice was checked, and the control value was calculated according to the following formula. Control value (%)={1-(Cb×Tai)/(Cai×Tb)}×100 Letters in the formula represent the following meanings. Cb: the number of insect before treatment on non-treated district Cai: the number of insect in observation on non-treated district Tb: the number of insect before treatment on treated district Tai: the number of insect in observation on treated district

The subject of assay [4] is Nilaparvata lugens. Briefly: Test Example 9: foot drench of rice seedling, twenty first instar larvae of Nilaparvata lugens. The settings on record: soil, 144 h, 5 ml drench at foot of rice seedling, kept 7 days, twenty first instar larvae released, further 6 days. The procedure: The formulations of the present active compounds (6), (7), (18), (22), (25), (30), (33), (46), (47), (53), (101) to (103), (106), (121) to (124), (126) to (128), (135), (139), (216) and (217) obtained by Formulation Example 5 were diluted with water so that the active ingredient concentration was 500 ppm, to prepare diluted solutions for test. Separately, a rice seedling (2 weeks after sowing, second leaf spreading stage) planted on a plastic cup was drenched at its foot with each 5 ml of the diluted solutions, and kept in a greenhouse of 25° C. for 7 days. Twenty first instar larvae of Nilaparvata lugens were released, and further kept in the greenhouse for 6 days, then, the number of insect of living Nilaparvata lugens […] on rice was checked, and the control value was calculated according to the following formula. Control value (%)={1-(Cb×Tai)/(Cai×Tb)}×100 Letters in the formula represent the following meanings. Cb: the number of insect before treatment on non-treated district Cai: the number of insect in observation on non-treated district Tb: the number of insect before treatment on treated district Tai: the number of insect in observation on treated district

Assay [5] relates to Aphis gossypii. The assay is described as follows: Test Example 4: foot drench of cucumber seedling in plastic cup, inoculation after 7 days, Aphis gossypii. The settings on record: soil, 144 h, 5 ml drench at foot of cucumber seedling in plastic cup, kept 7 days at 25° C., inoculated, further 6 days. An outline of the steps:
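Cucumber seedlings at second true leaf stage were soil-drenched with 5 ml of 500 ppm active ingredient and held 7 days at 25° C in greenhouse. Then 30 aphids (all stages) were placed on leaves; live insects counted 6 days later, control value (%) from treated/untreated counts before and after.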

Assay [6] deals with Aphis gossypii. Briefly: Test Example 2: foot drench of cucumber seedling on urethane mat, Aphis gossypii. The settings on record: soil, 168 h, 5 ml drench at foot of cucumber seedling on urethane mat, inoculated one day after treatment, checked seven days after. How it is done:
The formulations of the present active compounds (4), (5), (8), (9), (11), (12), (14), (15), (17), (20), (35) to (45), (48) to (51), (54) to (56), (206), (209) and (211) to (213) obtained by Formulation Example 5 were diluted with water so that the active ingredient concentration was 500 ppm, to prepare diluted solutions for test. Separately, a cucumber seedling (second true leaf spreading stage) planted on a urethane mat was drenched at its foot with each 5 ml of the diluted solutions, and one day after treatment, the cucumber leaf surface was inoculated with 30 Aphis gossypii (whole stage). Further seven days after, the number of insect of living Aphis gossypii […] on the leaves of this cucumber was checked, and the control value was calculated according to the following formula. Control value (%)={1-(Cb×Tai)/(Cai×Tb)}×100 Letters in the formula represent the following meanings. Cb: the number of insect before treatment on non-treated district Cai: the number of insect in observation on non-treated district Tb: the number of insect before treatment on treated district Tai: the number of insect in observation on treated district

For assay [7], the system named is Nilaparvata lugens. The assay is described as follows: Test Example 7: foot drench of rice seedling, thirty first instar larvae of Nilaparvata lugens. Particulars: soil, 144 h, 5 ml drench at foot of rice seedling, kept 7 days, thirty first instar larvae released, further 6 days. How it is done:
The formulations of the present active compounds (11), (13) to (15), (17), (23), (26), (35) to (41), (43) to (45), (48) to (51), (54), (55), (209), (211) and (212) obtained by Formulation Example 5 were diluted with water so that the active ingredient concentration was 500 ppm, to prepare diluted solutions for test. Separately, a rice seedling (2 weeks after sowing, second leaf spreading stage) planted on a plastic cup was drenched at its foot with each 5 ml of the diluted solutions, and kept in a greenhouse of 25° C. for 7 days. Thirty first instar larvae of Nilaparvata lugens were released, and further kept in the greenhouse for 6 days. The number of insect of living Nilaparvata lugens […] on rice was checked, and the control value was calculated according to the following formula. Control value (%)={1-(Cb×Tai)/(Cai×Tb)}×100 Letters in the formula represent the following meanings. Cb: the number of insect before treatment on non-treated district Cai: the number of insect in observation on non-treated district Tb: the number of insect before treatment on treated district Tai: the number of insect in observation on treated district

With `CC(CC(=O)O)n1c(-c2ccncc2)nc2cc(C(F)(F)F)ccc21` (centres unmarked) [comparative compound (B)], in the assay on Aphis gossypii [1], the control value result is “less than 30%”.
Still for that read-out and setting: then `Cc1cc2nc(-c3ccncc3)n(C)c2cc1C` [comparative compound (C)], with “less than 30%”.
For the compound `Cn1c(-c2cc[n+]([O-])cc2F)nc2cc(C(F)(F)F)ccc21` [present active compound 25, 2-(3-fluoro-1-oxypyridin-4-yl)-1-methyl-5-trifluoromethyl-1H-benzimidazole], the pest or weed control at 500 ppm in the assay with Aphis gossypii [2], with Bemisia tabaci, in the assay on Nilaparvata lugens [3] and in the assay with Nilaparvata lugens [4] was ≥ 90% in each case.
For the compound `COCCc1cnccc1-c1nc2cc(C(F)(F)F)cnc2n1C` [present active compound 106], the pest or weed control at 500 ppm in the assay on Aphis gossypii [5], in the assay on Bemisia tabaci and in the assay with Nilaparvata lugens [4] was ≥ 90% each time.
Turning to `CCCCOc1cnccc1-c1nc2cc(C(F)(F)F)ccc2n1C` [present active compound 206, 2-(3-butoxypyridin-4-yl-)-1-methyl-5-trifluoromethyl-1H-benzimidazole], the pest or weed control at 500 ppm in the assay on Aphis gossypii [6] and in the assay on Bemisia tabaci was ≥ 90% throughout.
Take `C=C(CF)Oc1cnccc1-c1nc2cc(C(F)(F)F)ccc2n1C` [present active compound 209, 2-[3-(1-fluoromethyl-vinyloxy)-pyridin-4-yl-]-1-methyl-5-trifluoromethyl-1H-benzimidazole]: the pest or weed control at 500 ppm in the assay on Aphis gossypii [6], in the assay on Bemisia tabaci and in the assay with Nilaparvata lugens [7] was ≥ 90% throughout.
